According to patent US20240390330A1, “ALPHA-2-ADRENERGIC RECEPTOR AGONISTS FOR REDUCING REDNESS AND INCREASING WHITENESS IN EYES AND OTHER OPHTHALMIC PURPOSES” (Allergan, Inc., priority 2020, published 2024):

Tests used:
[1] = Procedure: Aliquots of the PBS only curve were quenched at time zero to be used as stability controls and calibration standards. Following centrifugation, samples were analyzed by LC-MS/MS bioanalysis. Back-calculated concentrations using the assay PBS curve were used for binding and stability calculations.
ocular hyperemia = assay: Reducing eye redness in rabbits (naive and povidone iodine induced hyperemia model); assay type: in vivo, New Zealand White rabbits
Procedure: In this study, Applicant evaluated the compound of Formula I on ocular hyperemia (i.e., eye redness).
The modified Hackett-McDonald Scoring scale (Table 1) was used to assess hyperemia, discomfort, conjunctival swelling and discharge. Ocular imaging was conducted via a Haag-Streit B slit lamp. Effects of these compounds were first evaluated in naïve animals following baseline measurements and then assessed in a povidone iodine induced hyperemia model.
Animals: This study was conducted in female New Zealand White rabbits (Covance) weighing approximately 2-4 kg upon arrival.
This effect can be utilized as a transient hyperemia model to evaluate for potential blanching of blood vessels and rapid reduction of hyperemia. The ocular surface was anesthetized with drops of 0.5% proparacaine. The eye was then irrigated with 5% povidone iodine ophthalmic solution and left on the ocular surface for at least 2 minutes to ensure the solution completely covers the eye. The periocular region was also wiped with povidone solution. Following 2 minutes post-irrigation, the eye was rinsed with sterile saline until the rinsed solution runs clear. Hyperemia at baseline and post ocular topical treatment was assessed via the modified Hackett-McDonald Scoring Scale shown in Table 1 above.
Ocular imaging: A Haag-Streit BP 900 slitlamp was used to evaluate the anterior segment of the eye (e.g., corneal integrity and cells in the aqueous humor). Pupils were dilated by applying drops of 1% cyclopentolate and 10% phenylephrine to the ocular surface. Ocular imaging was conducted in awake and/or anesthetized animals (7.5-10 mg/kg Ketamine/1-10 mg/kg Xylazine).

pupil diameter = assay: In vivo rabbit miosis model; set-up: species or system Dutch Belted rabbits; conditions: for miotic efficacy compared with brimonidine: single topical dose, low-light conditions, FIG. 4 to FIG. 7
Procedure: Female Dutch Belted rabbits (Covance, Princeton, New Jersey) weighing between 2-4 kg were used for these studies. […] For topical dosing, eye drops (volume=35 μl) were instilled into the lower conjunctival sac of the test eye.
Pupil diameter was measured in both the treated and untreated eye with an Optistick to the nearest 0.5 mm. […]

eye redness = assay: Treatment of red eye (patient cases); assay type: in vivo, human; conditions: person
Description: A person complains about eye redness caused by seasonal allergies. A physician identifies the patient as having an OSH score of +2, and instructs them to administer to both of their eyes a composition comprising a compound of Formula I once or twice a day. Within the first day of administering the compound of Formula I, the patient reports decreased eye redness despite having on-going seasonal allergies, and their physician identifies the patient as having an OSH score of +0.5.
A person without any underlying health problems notices their eyes are red, making them appear tired at work. They administer to both of their eyes a composition comprising a compound of Formula I in order to increase the whiteness of their eyes for cosmetic reasons.
A person complains to their doctor that they suffer from red eyes due to minor eye irritations. The doctor prescribes a composition comprising a compound of Formula I and instructs them to administer the composition once or twice a day. The doctor also tells the person that many other marketed compositions for reducing eye redness are associated with side effects such as rebound hyperemia, dependency, and/or tachyphylaxis and that the person should report any such side effects.
Upon recommendation from a friend, they ask their doctor about possibly switching to a composition comprising the compound of Formula I since their friend told them that it works faster than brimonidine.

pupil size = conditions: brimonidine tartrate ophthalmic solution 0.2%, presbyopic patients, different lighting conditions (McDonald II et al.); cited from earlier work
[2] = after 6 hours, 0.1% w:v, FIG. 7

Cc1c(N=C2NCCN2)ccc2[nH]cnc12 [Compound 1]
melanin binding (in words) [1]: no significant melanin binding
hyperemia reduction on digital redness scale compared with LUMIFY (ocular hyperemia; 0.03% composition, FIG. 3): performed better than LUMIFY®
time post treatment of significant reduction in hyperemia (ocular hyperemia; 0.03% composition, FIG. 3): ≤ 1 min
efficacy on ocular hyperemia compared with LUMIFY (ocular hyperemia; 0.03% composition, single eye drop (~35 μl), FIG. 1 and FIG. 2): significantly greater efficacy on ocular hyperemia than LUMIFY®
reduction in the Modified Hackett-McDonald Score compared with LUMIFY (ocular hyperemia; score including hyperemia, discomfort, conjunctival swelling and discharge): greater reduction in the Modified Hackett-McDonal Score
responder analysis of rabbits with >2.5 mm pupil change (pupil diameter; 0.1% w:v, n=6, scotopic condition (<10 lux), FIG. 7): more efficacious than brimonidine
magnitude of pupil size reduction compared with brimonidine (pupil diameter; FIG. 7 and FIGS. 5 and 6): greater magnitude of pupil size reduction and therapeutic activity when compared to brimonidine
pupil constriction over 9 hours (pupil diameter; FIG. 9): significant pupil constriction even at 9 hours after dosing
effect on pupil constriction compared with Compound 3 (pupil diameter; FIG. 10): greater effect on pupil constriction when compared to Compound 3
dose miotic response (pupil diameter; Scotopic condition (<10 lux), FIG. 6): very potent dose miotic response
animals with greater than 2.5 mm reduction in pupil size from baseline (pupil diameter; [2]): more than half
miotic effect compared with other alpha adrenergic receptor agonists including brimonidine (pupil diameter; rabbit, in vivo): best miotic effect
miotic action (peak pupil constriction and duration of action) (pupil diameter; room lighting conditions, FIG. 8): greater miotic action than brimonidine
animals with greater than 2.5 mm reduction in pupil size from baseline (pupil diameter; two hours after dosing, 0.1% w:v, FIG. 7): virtually all animals
onset of eye redness reduction (eye redness): more effective in reducing eye redness in quite a bit less than a minute and faster than the brimonidine composition
whiteness of the eyes (eye redness; cosmetic use, both eyes): noticeably whiter
eye redness (eye redness; minor eye irritations, once or twice a day, a few weeks): no longer as red as they used to be
rebound hyperemia, dependency, tachyphylaxis (eye redness; once or twice a day, a few weeks): has not observed any of the rebound hyperemia, dependency, or tachyphylaxis
OSH score (eye redness; seasonal allergies, baseline +2, within the first day, scale of Table 2): +0.5

CCc1c(N=C2NCCN2)ccc2[nH]cnc12 [Compound 2, reference compound]
miotic efficacy compared with brimonidine (pupil diameter): much less than brimonidine

Brc1c(N=C2NCCN2)ccc2[nH]cnc12 [Compound 3, reference compound]
miotic efficacy compared with brimonidine (pupil diameter): much less than brimonidine

Brc1c(NC2=NCCN2)ccc2nccnc12 [Compound 4, brimonidine, reference compound]
melanin binding (in words) [1]: much more significant binding
animals with greater than 2.5 mm reduction in pupil size from baseline (pupil diameter; a half hour after dosing, 0.1% w:v, FIG. 7): much less than half
animals with greater than 2.5 mm reduction in pupil size from baseline (pupil diameter; [2]): virtually none
onset of eye redness reduction (eye redness): takes effect in less than a minute
average pupil size (pupil size): 3.4 mm
